Test results as given in the supplement of paper PMC10307832.

Columns and labels:
Test in all cases: relative viability (nuclei count vs DMSO), 5 days (fraction); higher = more cells survive
NCI-H1755 = system: NCI-H1755
Outline: (§1)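 Relative viability was taken as the ratio of nuclei in treated wells to nuclei in vehicle wells. Lung cancer cell lines in 1536-well plates received compounds by pin tool one day after seeding, either one drug alone or a fixed anchor-drug dose plus five library-drug doses (not always all listed) in √10 steps. Nuclei were counted on 4× images after 5 days of treatment, and values are medians of duplicate plates.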

NCI-H1793 = system: NCI-H1793
Outline: as §1

NCI-H1993 = system: NCI-H1993
Outline: as §1

NCI-H2347 = system: NCI-H2347
Outline: as §1

COR-L23 = system: COR-L23
Outline: as §1

PC-14 = system: PC-14
Outline: as §1

NCI-H2009 = system: NCI-H2009
Outline: as §1

HARA = system: HARA
Outline: as §1

NCI-H322M = system: NCI-H322M
Outline: as §1

HOP-62 = system: HOP-62
Outline: as §1

NCI-H1395 = system: NCI-H1395
Outline: as §1

NCI-H358 = system: NCI-H358
Outline: as §1

NCI-H2228 = system: NCI-H2228
Outline: as §1

NCI-H838 = system: NCI-H838
Outline: as §1

EKVX = system: EKVX
Outline: as §1

NCI-H1355 = system: NCI-H1355
Outline: as §1

NCI-H1734 = system: NCI-H1734
Outline: as §1

COR-L 105 = system: COR-L 105
Outline: as §1

NCI-H647 = system: NCI-H647
Outline: as §1

NCI-H2170 = system: NCI-H2170
Outline: as §1

UMC-11 = system: UMC-11
Outline: as §1

SK-MES-1 = system: SK-MES-1
Outline: as §1

Work on `Clc1ccc(Nc2nnc(Cc3ccncc3)c3ccccc23)cc1` [Vatalanib] + CS(=O)(=O)N1CCN(Cc2cc3nc(-c4cccc5[nH]ncc45)nc(N4CCOCC4)c3s2)CC1 [Pictilisib] (partner 1 µM) yielded a relative viability (NCI-H1755; first compound 0.04 µM) of 0.405, a relative viability (NCI-H1755; first compound 0.1265 µM) of 0.395 and a relative viability (NCI-H1755; first compound 0.4 µM) of 0.453. It also gave a relative viability (NCI-H1755; first compound 1.265 µM) of 0.387, a relative viability (NCI-H1755; first compound 4 µM) of 0.383 and a relative viability (NCI-H1793; first compound 0.04 µM) of 0.218. For the same molecule, the relative viability (NCI-H1793; first compound 0.1265 µM) was 0.326, the relative viability (NCI-H1793; first compound 0.4 µM) was 0.382 and the relative viability (NCI-H1793; first compound 1.265 µM) was 0.293. It also gave a relative viability (NCI-H1793; first compound 4 µM) of 0.347, a relative viability (NCI-H1993; first compound 0.04 µM) of 0.782 and a relative viability (NCI-H1993; first compound 0.1265 µM) of 0.898. For the same molecule, the relative viability (NCI-H1993; first compound 0.4 µM) was 0.847, the relative viability (NCI-H1993; first compound 1.265 µM) was 0.816 and the relative viability (NCI-H1993; first compound 4 µM) was 0.887. The relative viability (NCI-H2347; first compound 0.04 µM) was 0.709, the relative viability (NCI-H2347; first compound 0.1265 µM) was 0.723 and the relative viability (NCI-H2347; first compound 0.4 µM) was 0.409. It also gave a relative viability (NCI-H2347; first compound 1.265 µM) of 0.92, a relative viability (NCI-H2347; first compound 4 µM) of 0.319 and a relative viability (COR-L23; first compound 0.04 µM) of 0.992. It also gave a relative viability (COR-L23; first compound 0.1265 µM) of 0.745, a relative viability (COR-L23; first compound 0.4 µM) of 0.854 and a relative viability (COR-L23; first compound 1.265 µM) of 0.758. The relative viability (COR-L23; first compound 4 µM) was 0.64, the relative viability (PC-14; first compound 0.04 µM) was 0.832 and the relative viability (PC-14; first compound 0.1265 µM) was 0.712. It also gave a relative viability (PC-14; first compound 0.4 µM) of 0.693, a relative viability (PC-14; first compound 1.265 µM) of 0.69 and a relative viability (PC-14; first compound 4 µM) of 0.679. It also gave a relative viability (NCI-H2009; first compound 0.04 µM) of 0.977, a relative viability (NCI-H2009; first compound 0.1265 µM) of 0.656 and a relative viability (NCI-H2009; first compound 0.4 µM) of 0.833. It also gave a relative viability (NCI-H2009; first compound 1.265 µM) of 0.798, a relative viability (NCI-H2009; first compound 4 µM) of 0.885 and a relative viability (HARA; first compound 0.04 µM) of 0.555. The relative viability (HARA; first compound 0.1265 µM) was 0.414, the relative viability (HARA; first compound 0.4 µM) was 0.351 and the relative viability (HARA; first compound 1.265 µM) was 0.454. For the same molecule, the relative viability (HARA; first compound 4 µM) was 0.369, the relative viability (NCI-H322M; first compound 0.04 µM) was 0.513 and the relative viability (NCI-H322M; first compound 0.1265 µM) was 0.489. The relative viability (NCI-H322M; first compound 0.4 µM) was 0.555, the relative viability (NCI-H322M; first compound 1.265 µM) was 0.534 and the relative viability (NCI-H322M; first compound 4 µM) was 0.553. For the same molecule, the relative viability (HOP-62; first compound 0.04 µM) was 0.758, the relative viability (HOP-62; first compound 0.4 µM) was 0.632 and the relative viability (HOP-62; first compound 1.265 µM) was 0.702. For the same molecule, the relative viability (HOP-62; first compound 4 µM) was 0.713, the relative viability (NCI-H1395; first compound 0.04 µM) was 0.814 and the relative viability (NCI-H1395; first compound 0.1265 µM) was 0.55. The relative viability (NCI-H1395; first compound 0.4 µM) was 0.525, the relative viability (NCI-H1395; first compound 1.265 µM) was 0.538 and the relative viability (NCI-H1395; first compound 4 µM) was 0.616. The relative viability (NCI-H358; first compound 0.04 µM) was 0.378, the relative viability (NCI-H358; first compound 0.1265 µM) was 0.361 and the relative viability (NCI-H358; first compound 0.4 µM) was 0.397. It also gave a relative viability (NCI-H358; first compound 1.265 µM) of 0.311, a relative viability (NCI-H358; first compound 4 µM) of 0.353 and a relative viability (NCI-H2228; first compound 0.04 µM) of 0.313. It also gave a relative viability (NCI-H2228; first compound 0.1265 µM) of 0.432, a relative viability (NCI-H2228; first compound 0.4 µM) of 0.317 and a relative viability (NCI-H2228; first compound 1.265 µM) of 0.379. It also gave a relative viability (NCI-H2228; first compound 4 µM) of 0.432, a relative viability (NCI-H838; first compound 0.04 µM) of 0.477 and a relative viability (NCI-H838; first compound 0.1265 µM) of 0.41. For the same molecule, the relative viability (NCI-H838; first compound 0.4 µM) was 0.518, the relative viability (NCI-H838; first compound 1.265 µM) was 0.453 and the relative viability (NCI-H838; first compound 4 µM) was 0.467. The relative viability (EKVX; first compound 0.04 µM) was 0.39, the relative viability (EKVX; first compound 0.1265 µM) was 0.463 and the relative viability (EKVX; first compound 0.4 µM) was 0.391. It also gave a relative viability (EKVX; first compound 1.265 µM) of 0.344, a relative viability (EKVX; first compound 4 µM) of 0.396 and a relative viability (NCI-H1355; first compound 0.04 µM) of 0.391. It also gave a relative viability (NCI-H1355; first compound 0.1265 µM) of 0.441, a relative viability (NCI-H1355; first compound 0.4 µM) of 0.53 and a relative viability (NCI-H1355; first compound 1.265 µM) of 0.394. The relative viability (NCI-H1355; first compound 4 µM) was 0.457, the relative viability (NCI-H1734; first compound 0.04 µM) was 0.478 and the relative viability (NCI-H1734; first compound 0.1265 µM) was 0.471. The relative viability (NCI-H1734; first compound 0.4 µM) was 0.503, the relative viability (NCI-H1734; first compound 1.265 µM) was 0.45 and the relative viability (NCI-H1734; first compound 4 µM) was 0.465. For the same molecule, the relative viability (COR-L 105; first compound 0.04 µM) was 0.361, the relative viability (COR-L 105; first compound 0.1265 µM) was 0.4 and the relative viability (COR-L 105; first compound 0.4 µM) was 0.276. The relative viability (COR-L 105; first compound 1.265 µM) was 0.359, the relative viability (COR-L 105; first compound 4 µM) was 0.377 and the relative viability (NCI-H647; first compound 0.04 µM) was 0.387. For the same molecule, the relative viability (NCI-H647; first compound 0.1265 µM) was 0.42, the relative viability (NCI-H647; first compound 1.265 µM) was 0.385 and the relative viability (NCI-H647; first compound 4 µM) was 0.4. For the same molecule, the relative viability (NCI-H2170; first compound 0.04 µM) was 0.319, the relative viability (NCI-H2170; first compound 0.1265 µM) was 0.331 and the relative viability (NCI-H2170; first compound 0.4 µM) was 0.329. It also gave a relative viability (NCI-H2170; first compound 1.265 µM) of 0.356, a relative viability (NCI-H2170; first compound 4 µM) of 0.306 and a relative viability (UMC-11; first compound 0.04 µM) of 0.814. For the same molecule, the relative viability (UMC-11; first compound 0.1265 µM) was 0.746, the relative viability (UMC-11; first compound 0.4 µM) was 0.875 and the relative viability (UMC-11; first compound 1.265 µM) was 0.79. For the same molecule, the relative viability (UMC-11; first compound 4 µM) was 0.794, the relative viability (SK-MES-1; first compound 0.04 µM) was 0.408 and the relative viability (SK-MES-1; first compound 0.1265 µM) was 0.351. It also gave a relative viability (SK-MES-1; first compound 0.4 µM) of 0.387, a relative viability (SK-MES-1; first compound 1.265 µM) of 0.338 and a relative viability (SK-MES-1; first compound 4 µM) of 0.365.
